Values of other authors, collected in patent US20240398903A1, “COMPOSITION AND METHODS OF TREATMENT USING […] - ENHANCED SUPPLEMENTATION” (Xygenyx Inc., priority 2023, published 2024).

Columns and labels:
[1] = mice
skin [2] = conditions: penetration enhancer for transdermal drugs
[3] = tested on: wide dynamic range neurons in the ventroposterolateral nucleus of the thalamus; conditions: in vivo
[4] = in vivo
skin [5] = conditions: topical, concentrations 0.5-5%
[6] = as compared to α-tocopherol (factor 1.0)
[7] = even when dietary intake occurs in equal portions
[8] = in vivo; remark: listed apart in the source

CC(CN)C(=O)O [L-BAIBA, L-beta-aminoisobutyric acid]
tolerated dose [1]: 10-100 mg/kg of bodyweight

CC(C)[C@@H]1CC[C@@H](C)C[C@H]1O [Menthol]
increase of drug uptake via the transdermal route (factor) (skin [2]): ≥ 10

CCCCCc1cc(O)c2c(c1)OC(C)(C)C1CCC(C)=CC21 (stereo not drawn) [THC, Δ-9-tetrahydrocannabinol]
power in mediating pain relative to morphine [3]: ten times more powerful than morphine

CCNC(=O)CC[C@H](N)C(=O)O [Theanine]
dose considered safe and well-tolerated [4]: up to 400 mg per day

C=CCCCCCCCCC(=O)N[C@@H](Cc1ccccc1)C(=O)O [UP, Undecylenoyl phenylalanine]
time of treatment to skin lightening effects (skin [5]): ≥ 7 days

CC12CCC(CC1)C(C)(C)O2 [eucalyptol, 1,8-epoxy-p-menthane]
increase of drug uptake via the transdermal route (factor) (skin [2]): more than 10

Cc1c(C)c2c(c(C)c1O)CC[C@@](C)(CCC[C@H](C)CCC[C@H](C)CCCC(C)C)O2 [α-tocopherol]
reducing the risk of coronary disease (dietary supplementation, doses up to 400 IU/day): up to 34% | reduce the risk of developing neurodegenerative diseases such as Alzheimer's Syndrome or dementia (dietary supplementation, doses up to 400 IU/day, controlled trials): ≤ 24% | reduction in the development of age-related cataracts (in combination with 10-20 mg β-carotene and 400-500 mg vitamin C): 23% | relative biological activity [6]: 1.0

Cc1cc(O)c(C)c2c1O[C@](C)(CCC[C@H](C)CCC[C@H](C)CCCC(C)C)CC2 [β-tocopherol]
relative biological activity [6]: 0.5

Cc1c(O)cc2c(c1C)O[C@](C)(CCC[C@H](C)CCC[C@H](C)CCCC(C)C)CC2 [γ-tocopherol]
relative biological activity [6]: 0.1 | concentration in vivo relative to α-tocopherol [7]: roughly 10%

Cc1cc(O)cc2c1O[C@](C)(CCC[C@H](C)CCC[C@H](C)CCCC(C)C)CC2 [δ-tocopherol]
relative biological activity [6]: 0.03

HGH: hormone comprising a peptide chain that is synthesized in the pituitary gland
biological half-life [8]: 10-20 minutes
